Source: paper PMC10726451, “MAIP: An Open-Source Tool to Enrich High-Throughput Screening Output and Identify Novel, Druglike Molecules with Antimalarial Activity” (ACS Medicinal Chemistry Letters, 2023)
≈ marks a conversion by molar mass, not a printed value. Like-named read-outs stand apart in the source and are kept apart here.

Experiments:
P. falciparum 3D7 [1] = tested on: P. falciparum 3D7; design: method as in ChEMBL (version 32), ref 29; conditions: ref ChEMBL (version 32), cited from earlier work
P. falciparum Dd2 = P. falciparum Dd2 parasite growth, pLDH readout, 72 h incubation; type: cell-based; conditions: Plasmodium falciparum, read-out: Dd2 LDH (72 h) IC50
Description: (§1) Here, this state of the art screening platform was applied to CQL (Figure 3). During solubilization and reformatting activities, 40 samples were identified with solubility issues and removed from the screening set, thereby leaving 5810 compounds (4623 scored + 1187 randomly selected). A primary screen was conducted at a single concentration (2 μM) against P. falciparum NF54 (nanoGlo readout over 72 h incubation). […] These compounds were then tested in five-point dose–response curve (DRC) assays, each of which provides key information to decide which compound(s) to progress (highlighted in blue). Five different assays were carried out, including three parasite growth assays over 72 h of incubation (P. falciparum NF54 in both nanoGlo and pLDH read-outs and P. falciparum Dd2 in pLDH read-out), one parasite growth assay over 12 h of incubation (P. falciparum NF54 in nanoGlo read-out) in order to evaluate the speed of action, and a cytotoxicity assay against human HepG2 cells over 72 h of incubation. Out of 36 screening active compounds (36 + 0) fulfilling all of the ideal criteria, 12 were deemed attractive in terms of chemical novelty and diversity for further progression and evaluation. This set of compounds was further complemented with others that passed at least three of the five DRC criteria, together with assessments of chemical novelty and diversity, which led to 33 selected compounds. Twenty-two compounds (those still available from commercial suppliers) were repurchased, and the compound efficacy was retested against P. falciparum 3D7 (pLDH readout over 72 h incubation) and human HepG2 cells over 72 h of incubation at a different testing center.
No unexpected or unusually high safety hazards were encountered.
(§2) The Medicines for Malaria Venture (MMV)’s P. falciparum asexual blood stage phenotypic screening platform was used to experimentally validate the selected compounds. Full details can be found in a recent publication.5 Briefly, the HTS cascade relies on a newly developed P. falciparum strain genetically modified to express a nano-luciferase reporter gene driven by the ef1α promoter. In addition to providing similar results compared to a fluorescence-based assay, this reporter provided a robust read-out for parasite replication with incubation times as short […]
(§3) The screening platform consists of a primary screening where the compounds were tested at a single concentration (2 μM) against the chloroquine and pyrimethamine sensitive P. falciparum strain NF54 using a nanoGlo detection reagent. Compounds that exceeded a Z-score threshold of -4 were screened a second time in this assay format in addition to an orthogonal assay (P. falciparum NF54, pLDH). Only the compounds inhibiting parasite growth by more than 30% were then tested in five dose-response curve (DRC) assays. These assays were designed to evaluate different aspects any future antimalarial drug has to fulfil: - sensitivity (P. falciparum NF54, nanoGlo and P. falciparum NF54, pLDH); - efficacy against resistant parasite strains (P. falciparum Dd2, pLDH); - low cellular toxicity (HepG2 cells). In addition, to evaluate their speed of action, […]

[2] = LogD at pH 7.4, miniaturised shake flask; type: physicochemical
Description: The LogD pH7.4 assay was performed using a miniaturised shake flask method. A solution of a pre-saturated mixture of 1-octanol and PBS (1:1, v/v) and the test compound (75 µM) was incubated at 25 °C with constant shaking (850 rpm) for 2 hours. After incubation the organic and aqueous phases were separated, and samples of each phase transferred to plate for dilution. The organic phase was diluted to 1000-fold and the aqueous phase was diluted 20-fold. The samples were quantitated using LC-MS/MS. The experiment was carried out in duplicate. Propranolol, amitriptyline and midazolam were used as reference standards. […]

in vitro = type: cell-based; conditions: human
Description: as §1, with “center. […]” for “center.”
as §2, §3
versus 72 hours for the assays previously mentioned. […]
Compounds still commercially available for re-stock were purchased and retested in a different laboratory against P. falciparum 3D7 with a pLDF read-out, […]
(§4) and in human HepG2 cells. […]
(§5) in the parasite growth inhibition assay, and higher than 10 μM in the cell viability assay obtained in two distinct locations. […]

[3] = Metabolic stability in cryopreserved rat hepatocytes; type: in vitro ADME
Description: Metabolic stability using cryopreserved rat hepatocytes
A solution of the test compound in Krebs-Henseleit buffer solution (1 µM) was incubated in […]
CO2, 95% relative humidity). The reaction was terminated with the addition of ice-cold acetonitrile containing system suitability standard at designated time points. The sample was centrifuged (4200 rpm) for 20 minutes at 20 °C and the supernatant was half diluted in water and then analysed by means of LC-MS/MS. Compound clearance (CLint,app) was calculated using standard methodology. The experiment was carried out in duplicate. Diltiazem, 7-ethoxy coumarin, propranolol and midazolam were used as reference standards. […]

[4] = Solubility in PBS pH 7.4, miniaturised shake flask; type: physicochemical; conditions: kinetic from dmso stock, 25 °C
Description: Solubility in phosphate buffered saline (PBS) pH7.4
The solubility assay was performed using a miniaturised shake flask method. A solution of phosphate buffered saline (PBS) and the test compound (200 µM) was incubated at 25 °C with constant shaking (600 rpm) for 2 hours. The samples were filtered using a multiscreen solubility filter plate. The filtrate was half diluted in acetonitrile. A five-point linearity curve was prepared in PBS:Acetonitrile (1:1, v/v) at 200, 150, 75, 25 and 2.5 µM. Blank, linearity and test samples (n = 2) were transferred to a UV readable plate and the plate was scanned for absorbance. Best […]
fit calibration curves were constructed using the calibration standards and used to determine the test sample solubility. The experiment was carried out in duplicate. Diethylstilbestrol, haloperidol and sodium diclofenac were used as reference standards. […]

[5] = Metabolic stability in human liver microsomes; type: in vitro ADME; conditions: 1 µM compound, 0.5 mg/mL pooled human liver microsomes
Description: Metabolic stability study using human liver microsomes
A solution of the test compounds in phosphate buffer solution (1 µM) was incubated in pooled human liver microsomes (0.5 mg/mL) for 0, 5, 20, 30, 45 and 60 minutes at 37 °C in the presence and absence of NADPH regeneration system. The reaction was terminated with the addition of ice-cold acetonitrile containing system suitability standard at designated time points. The sample was centrifuged (4200 rpm) for 20 minutes at 20 °C and the supernatant was half diluted in water and then analysed by means of LC-MS/MS. Compound clearance (CLint,app) was […]
calculated using standard methodology. The experiment was carried out in duplicate.
Verapamil, diltiazem, phenacetin and imipramine were used as reference standards. […]

P. falciparum 3D7 [6] = assay: P. falciparum 3D7 parasite growth, pLDH readout, 72 h incubation; type: cell-based; conditions: Plasmodium falciparum, P. falciparum 3D7, pLDH readout, read-out: 3D7 LDH (72 h) IC50
Description: Afterwards, the remaining compounds were evaluated for their attractiveness derived from the chemical diversity relative to existing antimalarial drugs (Table S2 / Supplementary file SMILES-Table S2.xls) and calculated using Tanimoto similarity based on 2D molecular fingerprints. At this stage the list of remaining compounds was expanded with additional compounds that fulfilled at least 3 of the DRC assays criteria. Compounds still commercially available for re-stock were purchased and retested in a different laboratory against P. falciparum 3D7 with a pLDF read-out, […]
as §4, §5

[7] = read-out: Antimalarial activity: XC50
[8] = 1-octanol/PBS (1:1, v/v), pre-saturated, 1-octanol/PBS, pH 7.4, 25 °C, read-out: LogD pH 7.4
[9] = pooled cryopreserved rat hepatocytes, 1 µM compound, pooled rat hepatocytes 1×10^6 cells/mL, read-out: rat hepatocytes CLint
[10] = phosphate buffered saline, aqueous buffer, PBS pH 7.4, test compound 200 µM, 2 hours, read-out: kinetic solubility
[11] = phosphate buffered saline, aqueous buffer, PBS pH 7.4, test compound 200 µM, 2 hours

SMILES	IC50 (P. falciparum 3D7 [1]; [7])	IC50 (P. falciparum 3D7 [1]; read-out: Antimalarial activity: inhibition)	IC50 (P. falciparum Dd2; DD2, 72 h)	logD at 2 h, 75 µM [2, 8]	IC50 at 72 h (in vitro)	hepatocyte CLint at 1.5 h, 1 µM [3, 9]	solubility kinetic at 2 h [4, 10]	microsomal CLint at 1 h, 1 µM [5]	IC50 (P. falciparum 3D7 [6])	IC50 (P. falciparum Dd2; P. falciparum Dd2 (drug-resistant), pLDH readout, 72 h)	logD at 2 h, 75 µM ([2]; pH 7.4)	hepatocyte CLint at 1.5 h, 1 µM ([3]; rat, hepatocytes)	solubility kinetic at 2 h ([4]; pH 7.4, aqueous buffer)	solubility kinetic at 2 h, 200 µM [4, 11]	logD ([2]; 1-octanol/PBS (1:1, v/v), pre-saturated, 1-octanol/PBS, pH 7.4, 25 °C)
COc1c(C2CCN(CCN3CCC(CNC(=O)c4ccc(-c5ccc(C#N)cc5)cc4)CC3)CC2)ccc2c1CCCC2 [CHEMBL528171]	445 nM														
CC1CCN(Cc2cccc(C(=O)NCc3ccc(F)c(-c4ccc(CN5CCN[C@H](C)C5)cc4)c3)c2)CC1 [CHEMBL580242]	1460 nM														
Oc1cc(CN2CCC(O)(Cn3ccnc3)CC2)nc2c(Cl)cccc12 [CHEMBL3476473]		882 nM													
CN1CCC(Oc2ccc(NC(=O)c3cn4ccnc4s3)cn2)CC1 [MMV1797331]			2000 nM	1	21600 nM	1.9 µL/min/1e6 cells	≥ 200 µM	3.7 µL/min/mg	1900 nM						
c1ccc(-c2ccnc(C3CCN(CC45CNCC4C5)CC3)n2)cc1 (centres unmarked) [MMV1797658]			1500 nM	0.5	22100 nM	7.2 µL/min/1e6 cells	≥ 200 µM	3.5 µL/min/mg	780 nM						
CN1CCN(CCCCNC2CC3CCC(C2)N3Cc2ccccc2)CC1 (centres unmarked) [MMV1797951]					13800 nM			8.3 µL/min/mg	1000 nM	980 nM	-0.2	1.4 µL/min/1e6 cells	≥ 200 µM		
CC1(N2CCC2)CCC(NCC2CCN(Cc3ccccc3)C2)CC1 (centres unmarked) [MMV1798925]			1500 nM	0.3	19100 nM	7.2 µL/min/1e6 cells		3.5 µL/min/mg	1100 nM					173 µM (≈ 59.1 µg/mL)	
O=C(NC1CCN(CCOc2ccc(Cl)cc2)CC1)c1c[nH]c2ccncc2c1=O [MMV1798946]			2000 nM		> 25000 nM	2 µL/min/1e6 cells		14 µL/min/mg	750 nM					170 µM (≈ 72.6 µg/mL)	2.9
COc1ccc(-c2cncc(C(=O)NCC3CCN(CCN(C)C)CC3)c2)cc1 [MMV1799348]			2700 nM	1.2	> 25000 nM	1.2 µL/min/1e6 cells		3.5 µL/min/mg	1100 nM					198 µM (≈ 78.5 µg/mL)	
Cc1c(CN2CCC(O)(Cn3ccnc3)CC2)[nH]c2c(Cl)cccc12 [MMV1801316]			3600 nM	2.8	> 25000 nM	2.7 µL/min/1e6 cells		24.1 µL/min/mg	1500 nM					86 µM (≈ 30.9 µg/mL)	
Cc1cnccc1N1CCCN(Cc2ccccc2OCCN2CCN(C)CC2)CC1 [MMV1802771]			1100 nM	1	20000 nM	2.6 µL/min/1e6 cells		11 µL/min/mg	810 nM					100 µM (≈ 42.4 µg/mL)	
